The values below come from patent publication US20250025411A1, “READILY SOLUBLE AND THERMOSTABLE GLUCAGON FORMULATIONS AND DELIVERY FOR MINI-DOSING AND CLOSED -LOOP PROPHYLACTIC TREATMENT OF HYPOGLYCEMIA” (Massachusetts Institute of Technology, priority 2023, published 2025).

SMILES strings stand for the structures.

This data set can be described thus: High throughput screening of water-soluble solid excipients for glucagon dissolution. Format: physicochemical. The settings on record: for Fold change vs. PBS Avg.: 30-minute incubation in pH 7.4 PBS containing 1 mg/mL excipient; for Fold change vs. PBS Avg. / Glucagon concentration Avg.: 37° C.; for Glucagon concentration Avg.: solubilized glucagon after 30-minute incubation of lyophilized glucagon in pH 7.4 PBS containing 1 mg/mL excipient; for enhancement of glucagon dissolution (statistical significance compared to no excipient): 30-minute incubation in pH 7.4 PBS at 37° C.

On to `O=S(=O)([O-])CCC[P+](c1ccccc1)(c1ccccc1)c1ccccc1` [3-(Triphenylphosphonio)propane-1-sulfonate], for which the “Fold change vs. PBS Avg.” value is 1.21 fold and the “Glucagon concentration Avg.” value was 0.26 mg/mL.

Regarding `NC(=O)CNCCS(=O)(=O)O` [ACES], the “Fold change vs. PBS Avg.” value worked out at 1.12 fold and the “Glucagon concentration Avg.” value was determined as 0.24 mg/mL.

Take `NC(=O)CN(CC(=O)O)CC(=O)O` [ADA]: the “Fold change vs. PBS Avg.” value is 0.26 fold and the “Glucagon concentration Avg.” value is 0.06 mg/mL.

For the compound `OC[C@H]1O[C@@H]2O[C@H]3[C@H](O)[C@@H](O)[C@@H](O[C@H]4[C@H](O)[C@@H](O)[C@@H](O[C@H]5[C@H](O)[C@@H](O)[C@@H](O[C@H]6[C@H](O)[C@@H](O)[C@@H](O[C@H]7[C@H](O)[C@@H](O)[C@@H](O[C@H]1[C@H](O)[C@H]2O)O[C@@H]7CO)O[C@@H]6CO)O[C@@H]5CO)O[C@@H]4CO)O[C@@H]3CO` [Alpha cyclodextrin], the “Fold change vs. PBS Avg.” value is 0.55 fold and the “Glucagon concentration Avg.” value came out at 0.12 mg/mL.

For `NC(=O)C[C@H](N)C(=O)O.O` [Asparagine monohydrate], the “Fold change vs. PBS Avg.” value is recorded as 1.55 fold and the “Glucagon concentration Avg.” value is 0.33 mg/mL.

Take `OC[C@H]1O[C@@H]2O[C@H]3[C@H](O)[C@@H](O)[C@@H](O[C@H]4[C@H](O)[C@@H](O)[C@@H](O[C@H]5[C@H](O)[C@@H](O)[C@@H](O[C@H]6[C@H](O)[C@@H](O)[C@@H](O[C@H]7[C@H](O)[C@@H](O)[C@@H](O[C@H]8[C@H](O)[C@@H](O)[C@@H](O[C@H]1[C@H](O)[C@H]2O)O[C@@H]8CO)O[C@@H]7CO)O[C@@H]6CO)O[C@@H]5CO)O[C@@H]4CO)O[C@@H]3CO` [B-Cyclodextrin]: the “Fold change vs. PBS Avg.” value was found to be 1.40 fold and the “Glucagon concentration Avg.” value is 0.30 mg/mL.

For `OCCN(CCO)C(CO)(CO)CO` [BIS-TRIS], the “Fold change vs. PBS Avg.” value turned out to be 1.67 fold and the “Glucagon concentration Avg.” value came to 0.36 mg/mL.

For `O=C(O)c1ccccc1` [Benzoic acid], the “enhancement of glucagon dissolution (statistical significance compared to no excipient)” value is “successfully enhanced the dissolution of glucagon”, the “Fold change vs. PBS Avg.” value came to 15.09 fold and the “Glucagon concentration Avg.” value came out at 3.25 mg/mL.

With `NCCC(=O)O` [Beta-Alanine], the “Fold change vs. PBS Avg.” value came to 1.34 fold and the “Glucagon concentration Avg.” value turned out to be 0.29 mg/mL.

Regarding `C[N+](C)(C)CC(=O)O` [Betaine], the “Fold change vs. PBS Avg.” value was found to be 1.11 fold and the “Glucagon concentration Avg.” value was found to be 0.24 mg/mL.

`CC(C)(O)C(Cl)(Cl)Cl` [Chlorobutanol Hemihydrate]: the “Fold change vs. PBS Avg.” value was determined as 1.83 fold and the “Glucagon concentration Avg.” value was determined as 0.39 mg/mL.

Regarding `OC[C@H]1O[C@H](O[C@H]2O[C@H](CO)[C@@H](O)[C@H](O)[C@H]2O)[C@H](O)[C@@H](O)[C@@H]1O` [D-(+)-Trehalose], the “Fold change vs. PBS Avg.” value is reported as 1.55 fold and the “Glucagon concentration Avg.” value came out at 0.33 mg/mL.

For the compound `O=C(CO)[C@@H](O)[C@H](O)[C@H](O)CO` [D-(−)-Fructose], the “Fold change vs. PBS Avg.” value worked out at 1.09 fold and the “Glucagon concentration Avg.” value turned out to be 0.23 mg/mL.

On to `CC(C)(S)[C@@H](N)C(=O)O` [D-Penicillamine], for which the “Fold change vs. PBS Avg.” value turned out to be 1.42 fold and the “Glucagon concentration Avg.” value is recorded as 0.31 mg/mL.

For the compound `OC[C@@H](O)[C@@H](O)[C@H](O)[C@@H](O)CO` [D-Sorbitol], the “Fold change vs. PBS Avg.” value was 1.16 fold and the “Glucagon concentration Avg.” value is given as 0.25 mg/mL.

Consider `O=C[C@H](O)[C@@H](O)[C@H](O)[C@H](O)CO` [D-glucose], for which the “Fold change vs. PBS Avg.” value worked out at 1.08 fold and the “Glucagon concentration Avg.” value is reported as 0.23 mg/mL.

As to `O=S(=O)(O)CC(O)CN(CCO)CCO` (centres unmarked) [DIPSO], the “Fold change vs. PBS Avg.” value is reported as 1.28 fold and the “Glucagon concentration Avg.” value came out at 0.28 mg/mL.

Take `O.O=C[C@H](O)[C@@H](O)[C@H](O)[C@H](O)CO` [Dextrose Monohydrate]: the “Fold change vs. PBS Avg.” value amounted to 1.09 fold and the “Glucagon concentration Avg.” value came to 0.24 mg/mL.

Consider `O=C(O)C(S)C(S)C(=O)O` (centres unmarked) [Dimercaptosuccinic acid], for which the “Fold change vs. PBS Avg.” value worked out at 2.38 fold and the “Glucagon concentration Avg.” value was 0.51 mg/mL.

For `CCCCCCCCCCCCOP(=O)([O-])OCC[N+](C)(C)C` [Dodecylphosphocholine], the “enhancement of glucagon dissolution (statistical significance compared to no excipient)” value was “successfully enhanced the dissolution of glucagon”, the “Fold change vs. PBS Avg.” value is 4.37 fold and the “Glucagon concentration Avg.” value is reported as 0.94 mg/mL.

For `O=C(O)CN(CCOCCOCCN(CC(=O)O)CC(=O)O)CC(=O)O` [EGTA], the “Fold change vs. PBS Avg.” value turned out to be 3.11 fold and the “Glucagon concentration Avg.” value was 0.67 mg/mL.

`O=S(=O)(O)CCCN1CCN(CCO)CC1` [EPPS]: the “Fold change vs. PBS Avg.” value is 0.79 fold and the “Glucagon concentration Avg.” value was 0.17 mg/mL.

Take `Nc1nc2ncc(CNc3ccc(C(=O)N[C@@H](CCC(=O)O)C(=O)O)cc3)nc2c(=O)[nH]1` [Folic acid]: the “Fold change vs. PBS Avg.” value stood at 1.98 fold and the “Glucagon concentration Avg.” value was found to be 0.43 mg/mL.

`O=S(=O)(O)CCN1CCN(CCO)CC1` [HEPES]: the “Fold change vs. PBS Avg.” value stood at 1.15 fold and the “Glucagon concentration Avg.” value was 0.25 mg/mL.

For the compound `CC(O)COC[C@H]1O[C@@H]2O[C@H]3[C@H](O)[C@@H](O)[C@@H](O[C@H]4[C@H](O)[C@@H](O)[C@@H](O[C@H]5[C@H](O)[C@@H](O)[C@@H](O[C@H]6[C@H](O)[C@@H](O)[C@@H](O[C@H]7[C@H](O)[C@@H](O)[C@@H](O[C@H]8[C@H](O)[C@@H](O)[C@@H](O[C@H]1[C@H](O)[C@H]2O)O[C@@H]8COCC(C)O)O[C@@H]7COCC(C)O)O[C@@H]6COCC(C)O)O[C@@H]5COCC(C)O)O[C@@H]4COCC(C)O)O[C@@H]3COCC(C)O` (some centres unmarked) [Hydroxypropyl Betadex], the “Fold change vs. PBS Avg.” value is 1.74 fold and the “Glucagon concentration Avg.” value turned out to be 0.37 mg/mL.

For `CC[C@H](C)[C@H](N)C(=O)O` [Isoleucine], the “Fold change vs. PBS Avg.” value was determined as 1.88 fold and the “Glucagon concentration Avg.” value was 0.41 mg/mL.

As to `O=C[C@H](O)[C@@H](O)[C@@H](O)CO` [L-(+)-Arabinose], the “Fold change vs. PBS Avg.” value amounted to 1.52 fold and the “Glucagon concentration Avg.” value came to 0.33 mg/mL.

As to `Cl.N[C@@H](CS)C(=O)O` [L-Cysteine hydrochloride], the “Fold change vs. PBS Avg.” value amounted to 0.93 fold and the “Glucagon concentration Avg.” value is on record as 0.20 mg/mL.

For `N[C@@H](CS)C(=O)O` [L-Cysteine], the “Fold change vs. PBS Avg.” value is recorded as 0.60 fold and the “Glucagon concentration Avg.” value stood at 0.13 mg/mL.

As to `NC(=O)CC[C@H](N)C(=O)O` [L-Glutamine], the “enhancement of glucagon dissolution (statistical significance compared to no excipient)” value is “successfully enhanced the dissolution of glucagon”, the “Fold change vs. PBS Avg.” value turned out to be 3.87 fold and the “Glucagon concentration Avg.” value is 0.83 mg/mL.

Regarding `N[C@@H](Cc1ccccc1)C(=O)O` [L-Phenylalanine], the “Fold change vs. PBS Avg.” value came to 1.66 fold and the “Glucagon concentration Avg.” value is given as 0.36 mg/mL.

On to `N[C@@H](Cc1c[nH]c2ccccc12)C(=O)O` [L-Tryptophan], for which the “Fold change vs. PBS Avg.” value was determined as 1.54 fold and the “Glucagon concentration Avg.” value turned out to be 0.33 mg/mL.

As for `N[C@@H](Cc1c[nH]cn1)C(=O)O` [L-histidine], the “Fold change vs. PBS Avg.” value came to 2.57 fold and the “Glucagon concentration Avg.” value is given as 0.55 mg/mL. In addition, where the note is “listed as L-Histidine”, the “Fold change vs. PBS Avg.” value is reported as 1.41 fold and the “Glucagon concentration Avg.” value worked out at 0.30 mg/mL.

In the case of `CC(C)C[C@H](N)C(=O)O` [L-leucine], the “Fold change vs. PBS Avg.” value is reported as 1.32 fold and the “Glucagon concentration Avg.” value came to 0.28 mg/mL.

Take `NCCCC[C@H](N)C(=O)O` [L-lysine]: the “Fold change vs. PBS Avg.” value turned out to be 2.84 fold and the “Glucagon concentration Avg.” value was found to be 0.61 mg/mL.

With `O=C(O)[C@H](O)[C@@H](O)[C@H](O[C@@H]1O[C@H](CO)[C@H](O)[C@H](O)[C@H]1O)[C@H](O)CO` [Lactobionic Acid], the “Fold change vs. PBS Avg.” value amounted to 1.35 fold and the “Glucagon concentration Avg.” value was determined as 0.29 mg/mL.

For the compound `CCCCCCCCCCCC[N+](C)(C)CCCS(=O)(=O)O` [Lauryl sulfobetaine], the “Fold change vs. PBS Avg.” value is given as 0.52 fold and the “Glucagon concentration Avg.” value worked out at 0.11 mg/mL.

`O=S(=O)(O)CC(O)CN1CCOCC1` (centres unmarked) [MOPSO]: the “Fold change vs. PBS Avg.” value is given as 1.37 fold and the “Glucagon concentration Avg.” value was found to be 0.29 mg/mL.

For the compound `O=S(=O)(O)CCCN1CCOCC1` [MOPS], the “Fold change vs. PBS Avg.” value is listed as 0.80 fold and the “Glucagon concentration Avg.” value turned out to be 0.17 mg/mL.

Turning to `O=C(O)/C=C\C(=O)O` [Maleic Acid], the “Fold change vs. PBS Avg.” value came out at 0.34 fold and the “Glucagon concentration Avg.” value turned out to be 0.07 mg/mL.

Consider `O=C(O)CC(O)C(=O)O` (centres unmarked) [Malic Acid], for which the “Fold change vs. PBS Avg.” value is 0.35 fold and the “Glucagon concentration Avg.” value is 0.08 mg/mL.

Turning to `OC[C@@H](O)[C@@H](O)[C@H](O)[C@H](O)CO` [Mannitol], the “Fold change vs. PBS Avg.” value amounted to 2.49 fold and the “Glucagon concentration Avg.” value is 0.54 mg/mL.

As for `CNC[C@H](O)[C@@H](O)[C@H](O)[C@H](O)CO` [Meglumine], the “Glucagon concentration Avg.” value amounted to 1.32 mg/mL.

As for `CSCC[C@H](N)C(=O)O` [Methionine], the “Fold change vs. PBS Avg.” value amounted to 1.81 fold and the “Glucagon concentration Avg.” value is reported as 0.39 mg/mL.

`CCCCCCCCCCCCCC[N+](C)(C)CCCS(=O)(=O)[O-]` [Myristyl sulfobetaine]: the “enhancement of glucagon dissolution (statistical significance compared to no excipient)” value is “successfully enhanced the dissolution of glucagon”, the “Fold change vs. PBS Avg.” value was 5.33 fold and the “Glucagon concentration Avg.” value is listed as 1.15 mg/mL. Also, the “enhancement of solution glucagon concentration compared to unformulated glucagon” value (pH 7.4 PBS) is reported as “up to 500%”.

For the compound `NC(=O)c1cccnc1` [Niacinamide], the “Fold change vs. PBS Avg.” value amounted to 1.17 fold and the “Glucagon concentration Avg.” value is given as 0.25 mg/mL.
